# Data: patent US9193733B2, “Piperidinylcyclobutyl substituted pyrrolopyridine and pyrrolopyrimidine derivatives as JAK inhibitors” (Incyte Corporation, priority 2012, dated 2015)
# Counter-ions that a name gives are not always drawn.
# Assays:
# Assay type in all cases: biochemical
# [1] = test system: human JAK1 (a.a. 837-1142) catalytic domain; experiment: In vitro JAK kinase assay (HTRF, phosphorylation of a biotinylated peptide), JAK1; settings: ratio of JAK2 IC50 to JAK1 IC50, 1 mM ATP
# Method: (§1) Compounds herein were tested for inhibitory activity of JAK targets according to the following in vitro assay described in Park et al., Analytical Biochemistry 1999, 269, 94-104. The catalytic domains of human JAK1 (a.a. 837-1142) and JAK2 (a.a. 828-1132) with an N-terminal His tag were expressed using baculovirus in insect cells and purified. The catalytic activity of JAK1 and JAK2 was assayed by measuring the phosphorylation of a biotinylated peptide. The phosphorylated peptide was detected by homogenous time resolved fluorescence (HTRF). IC50s of compounds were measured for each kinase in the 40 microL reactions that contain the enzyme, ATP and 500 nM peptide in 50 mM Tris (pH 7.8) buffer with 100 mM NaCl, 5 mM DTT, and 0.1 mg/mL (0.01%) BSA. For the 1 mM IC50 measurements, ATP concentration in the reactions was 1 mM. Reactions were carried out at room temperature for 1 hour and then stopped with 20 μL 45 mM EDTA, 300 nM SA-APC, 6 nM Eu-Py20 in assay buffer (Perkin Elmer, Boston, Mass.). Binding to the Europium labeled antibody took place for 40 minutes and HTRF signal was measured on a Fusion plate reader (Perkin Elmer, Boston, Mass.). See Table A for data related to compounds of the Examples (at 1 mM). Data is indicated as ranges: <20 nM (+), 20 to <150 nM (++), 150 to 500 nM (+++).
# [2] = target: T1, human JAK1 (a.a. 837-1142) catalytic domain (Homo sapiens, UniProt P23458); experiment: as above; settings: 1 mM ATP
# T1 construct: human JAK1 (a.a. 837-1142) and JAK2 (a.a. 828-1132); His tag (N); made in house; host or cells: insect cells (baculovirus)
# T1 sequence (P23458 849-1154): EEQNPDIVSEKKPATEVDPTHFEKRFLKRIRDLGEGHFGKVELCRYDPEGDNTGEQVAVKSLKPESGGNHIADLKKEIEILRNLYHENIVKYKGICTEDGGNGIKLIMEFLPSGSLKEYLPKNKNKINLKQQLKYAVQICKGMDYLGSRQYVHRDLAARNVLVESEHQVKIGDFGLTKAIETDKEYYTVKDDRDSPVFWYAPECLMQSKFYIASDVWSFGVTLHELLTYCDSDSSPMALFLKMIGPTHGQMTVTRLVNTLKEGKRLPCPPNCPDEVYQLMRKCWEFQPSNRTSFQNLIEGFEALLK
# Method: as §1
# [3] = target: T2, human JAK2 (a.a. 828-1132) catalytic domain (Homo sapiens, UniProt O60674); experiment: In vitro JAK kinase assay (HTRF, phosphorylation of a biotinylated peptide), JAK2; settings: 1 mM ATP
# T2 construct: human JAK1 (a.a. 837-1142) and JAK2 (a.a. 828-1132); His tag (N); made in house; host or cells: insect cells (baculovirus)
# T2 sequence (O60674 828-1132): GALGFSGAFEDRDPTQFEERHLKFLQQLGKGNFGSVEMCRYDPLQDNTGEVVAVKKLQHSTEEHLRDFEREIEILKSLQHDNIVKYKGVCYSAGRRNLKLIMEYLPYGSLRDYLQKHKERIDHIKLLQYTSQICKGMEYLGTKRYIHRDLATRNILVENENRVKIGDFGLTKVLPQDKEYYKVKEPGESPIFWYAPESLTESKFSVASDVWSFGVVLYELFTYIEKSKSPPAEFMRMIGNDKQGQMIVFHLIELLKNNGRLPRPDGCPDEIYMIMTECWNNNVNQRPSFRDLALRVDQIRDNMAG
# Method: as §1
SMILES,JAK2/JAK1 [1],IC50 [2],IC50 [3]
"N#CC[C@]1(n2cc(-c3ncnc4[nH]ccc34)cn2)C[C@H](N2CCC(Oc3cc(CN(CCO)CCO)cc(C(F)(F)F)n3)CC2)C1 [Example 16, {trans-3-(4-{[4-{[bis(2-hydroxyethyl)amino]methyl}-6-(trifluoromethyl)pyridin-2-yl]oxy}piperidin-1-yl)-1-[4-(7H-pyrrolo[2,3-d]pyrimidin-4-yl)-1H-pyrazol-1-yl]cyclobutyl}acetonitrile]",>10,< 20 nM,20 to 150 nM
"CN(CCO)Cc1cc(OC2CCN([C@H]3C[C@](CC#N)(n4cc(-c5ncnc6[nH]ccc56)cn4)C3)CC2)nc(C(F)(F)F)c1 [Example 17, {trans-3-(4-{[4-{[(2-hydroxyethyl)(methyl)amino]methyl}-6-(trifluoromethyl)pyridin-2-yl]oxy}piperidin-1-yl)-1-[4-(7H-pyrrolo[2,3-d]pyrimidin-4-yl)-1H-pyrazol-1-yl]cyclobutyl}acetonitrile]",>10,< 20 nM,20 to 150 nM
"N#CC[C@]1(n2cc(-c3ncnc4[nH]ccc34)cn2)C[C@H](N2CCC(Oc3cc(CN[C@H]4C[C@@H](O)C4)cc(C(F)(F)F)n3)CC2)C1 [Example 18, {trans-3-(4-{[4-{[(cis-3-hydroxycyclobutyl)amino]methyl}-6-(trifluoromethyl)pyridin-2-yl]oxy}piperidin-1-yl)-1-[4-(7H-pyrrolo[2,3-d]pyrimidin-4-yl)-1H-pyrazol-1-yl]cyclobutyl}acetonitrile 3.6 x trifluoroacetate salt]",>10,< 20 nM,20 to 150 nM
"N#CC[C@]1(n2cc(-c3ncnc4[nH]ccc34)cn2)C[C@H](N2CCC(Oc3cc(CCO)cc(C(F)(F)F)n3)CC2)C1 [Example 20, {trans-3-(4-{[4-(2-hydroxyethyl)-6-(trifluoromethyl)pyridin-2-yl]oxy}piperidin-1-yl)-1-[4-(7H-pyrrolo[2,3-d]pyrimidin-4-yl)-1H-pyrazol-1-yl]cyclobutyl}acetonitrile]",>10,< 20 nM,20 to 150 nM
"N#CC[C@]1(n2cc(-c3ccnc4[nH]ccc34)cn2)C[C@H](N2CCC(Oc3cc(CNCCO)cc(C(F)(F)F)n3)CC2)C1 [Example 21, {trans-3-(4-{[4-{[(2-hydroxyethyl)amino]methyl}-6-(trifluoromethyl)pyridin-2-yl]oxy}piperidin-1-yl)-1-[4-(1H-pyrrolo[2,3-b]pyridin-4-yl)-1H-pyrazol-1-yl]cyclobutyl}acetonitrile]",>10,< 20 nM,150 to 500 nM
"N#CC[C@]1(n2cc(-c3ncnc4[nH]ccc34)cn2)C[C@H](N2CCC(Oc3cc(Cn4cncn4)cc(C(F)(F)F)n3)CC2)C1 [Example 23, [trans-1-[4-(7H-pyrrolo[2,3-d]pyrimidin-4-yl)-1H-pyrazol-1-yl]-3-(4-{[4-(1H-1,2,4-triazol-1-ylmethyl)-6-(trifluoromethyl)pyridin-2-yl]oxy}piperidin-1-yl)cyclobutyl]acetonitrile]",>10,< 20 nM,20 to 150 nM
"N#CC[C@]1(n2cc(-c3ncnc4[nH]ccc34)cn2)C[C@H](N2CCC(Oc3cc(Cn4cccn4)cc(C(F)(F)F)n3)CC2)C1 [Example 25, {trans-3-(4-{[4-(1H-pyrazol-1-ylmethyl)-6-(trifluoromethyl)pyridin-2-yl]oxy}piperidin-1-yl)-1-[4-(7H-pyrrolo[2,3-d]pyrimidin-4-yl)-1H-pyrazol-1-yl]cyclobutyl}acetonitrile]",>10,< 20 nM,150 to 500 nM
"CCNCc1cc(NC2CCN([C@H]3C[C@](CC#N)(n4cc(-c5ncnc6[nH]ccc56)cn4)C3)CC2)nc(C(F)(F)F)n1 [Example 28, {trans-3-(4-{[6-[(ethylamino)methyl]-2-(trifluoromethyl)pyrimidin-4-yl]amino}piperidin-1-yl)-1-[4-(7H-pyrrolo[2,3-d]pyrimidin-4-yl)-1H-pyrazol-1-yl]cyclobutyl}acetonitrile]",>10,< 20 nM,20 to 150 nM
"N#CC[C@]1(n2cc(-c3ncnc4[nH]ccc34)cn2)C[C@H](N2CCC(Nc3cc(CNCCO)nc(C(F)(F)F)n3)CC2)C1 [Example 29, {trans-3-(4-{[6-{[(2-hydroxyethyl)amino]methyl}-2-(trifluoromethyl)pyrimidin-4-yl]amino}piperidin-1-yl)-1-[4-(7H-pyrrolo[2,3-d]pyrimidin-4-yl)-1H-pyrazol-1-yl]cyclobutyl}acetonitrile]",>10,< 20 nM,20 to 150 nM

# Now from value to molecule:
JAK2/JAK1 [1],IC50 [2],IC50 [3],SMILES
>10,< 20 nM,20 to 150 nM,"C[C@H](O)CNCc1cc(OC2CCN([C@H]3C[C@](CC#N)(n4cc(-c5ncnc6[nH]ccc56)cn4)C3)CC2)nc(C(F)(F)F)c1 [Example 15, {trans-3-(4-{[4-({[(2S)-2-hydroxypropyl]amino}methyl)-6-(trifluoromethyl)pyridin-2-yl]oxy}piperidin-1-yl)-1-[4-(7H-pyrrolo[2,3-d]pyrimidin-4-yl)-1H-pyrazol-1-yl]cyclobutyl}acetonitrile]"
>10,< 20 nM,20 to 150 nM,"N#CC[C@]1(n2cc(-c3ncnc4[nH]ccc34)cn2)C[C@H](N2CCC(Oc3cc(Cn4ccnc4)cc(C(F)(F)F)n3)CC2)C1 [Example 22, {trans-3-(4-{[4-(1H-imidazol-1-ylmethyl)-6-(trifluoromethyl)pyridin-2-yl]oxy}piperidin-1-yl)-1-[4-(7H-pyrrolo[2,3-d]pyrimidin-4-yl)-1H-pyrazol-1-yl]cyclobutyl}acetonitrile]"
>10,< 20 nM,20 to 150 nM,"N#CC[C@]1(n2cc(-c3ncnc4[nH]ccc34)cn2)C[C@H](N2CCC(Oc3cc(Cn4cnnc4)cc(C(F)(F)F)n3)CC2)C1 [Example 24, [trans-1-[4-(7H-pyrrolo[2,3-d]pyrimidin-4-yl)-1H-pyrazol-1-yl]-3-(4-{[4-(4H-1,2,4-triazol-4-ylmethyl)-6-(trifluoromethyl)pyridin-2-yl]oxy}piperidin-1-yl)cyclobutyl]acetonitrile]"
>10,< 20 nM,150 to 500 nM,"CC1(C)CN(C(=O)c2cc(OC3CCN([C@H]4C[C@](CC#N)(n5cc(-c6ncnc7[nH]ccc67)cn5)C4)CC3)nc(C(F)(F)F)c2)C1 [Example 26, {trans-3-(4-{[4-[(3,3-dimethylazetidin-1-yl)carbonyl]-6-(trifluoromethyl)pyridin-2-yl]oxy}piperidin-1-yl)-1-[4-(7H-pyrrolo[2,3-d]pyrimidin-4-yl)-1H-pyrazol-1-yl]cyclobutyl}acetonitrile]"
>10,< 20 nM,20 to 150 nM,"N#CC[C@]1(n2cc(-c3ncnc4[nH]ccc34)cn2)C[C@H](N2CCC(Nc3cc(CO)nc(C(F)(F)F)n3)CC2)C1 [Example 27, {trans-3-(4-{[6-(hydroxymethyl)-2-(trifluoromethyl)pyrimidin-4-yl]amino}piperidin-1-yl)-1-[4-(7H-pyrrolo[2,3-d]pyrimidin-4-yl)-1H-pyrazol-1-yl]cyclobutyl}acetonitrile]"
